# Reference: US10131657B2, “Bromodomain inhibitors” (AbbVie Inc., priority 2013, dated 2018)
# System: breast cancer cell line MX-1
# Assay: MX-1 cell line proliferation assay, Method A
# Type: cell-based
# Details: Homo sapiens, MX1; MX-1 cells, 96-well, 72 hours, Cell Titer Glo; read-out: Cellular proliferation: EC50 Method A
# Experimental: The impact of compounds of the Examples on cancer cell proliferation was determined using the breast cancer cell line MX-1 (ATCC) in a 3-day proliferation assay and the data are reported in Table 1.
# MX-1 cells were maintained in RPMI 1640 medium (Sigma) supplemented with 10% FBS at 37° C. and an atmosphere of 5% CO2. For compound testing, MX-1 cells were plated in 96-well black bottom plates at a density of 5000 cells/well in 90 μL of culture media and incubated at 370 overnight to allow cell adhesion and spreading. Compound dilution series were prepared in DMSO via a 3-fold serial dilution from 3 mM to 0.1 μM. The DMSO dilution series were then diluted 1:100 in phosphate buffered saline, and 10 μL of the resulted solution were added to the appropriate wells of the MX-1 cell plate. The final compound concentrations in the wells were 3, 1, 0.3, 0.1, 0.03, 0.01, 0.003, 0.001, 0.0003 and 0.0001 μM.
# Luminescence readings from the Cell Titer Glo assay were normalized to the DMSO treated cells and analyzed using the GraphPad Prism software with sigmoidal curve fitting to obtain ECs50s. The minimum significant ratio (MSR) was determined to evaluate assay reproducibility (Eastwood et al., (2006) J Biomol Screen, 11: 253-261).
row,Compound,EC50
1,"Cc1cc(-c2ccc(-c3cn(C)c(=O)c4[nH]ccc34)c(OCC3CC3)c2)[nH]n1 [Example 1, 4-[2-(cyclopropylmethoxy)-4-(3-methyl-1H-pyrazol-5-yl)phenyl]-6-methyl-1,6-dihydro-7H-pyrrolo[2,3-c]pyridin-7-one]",151 nM
2,"CCS(=O)(=O)Nc1cc(-c2cn(C)c(=O)c3[nH]ccc23)c(Oc2ccc(F)cc2F)cc1CN(C)C [Example 2, N-[4-(2,4-difluorophenoxy)-2-[(dimethylamino)methyl]-5-(6-methy-7-oxo-6,7-dihydro-1H-pyrrolo[2,3-c]pyridin-4-yl)phenyl]ethanesulfonamide]",110 nM
3,"CCS(=O)(=O)Nc1cc(-c2cn(C)c(=O)c3[nH]ccc23)c(Oc2ccc(F)cc2F)cc1CN1CCCCC1 [Example 3, N-[4-(2,4-difluorophenoxy)-5-(6-methyl-7-oxo-6,7-dihydro-1H-pyrrolo[2,3-c]pyridin-4-yl)-2-(piperidin-1-ylmethyl)phenyl]ethanesulfonamide]",36.8 nM
4,"CCS(=O)(=O)Nc1cc(-c2cn(C)c(=O)c3[nH]ccc23)c(Oc2ccc(F)cc2F)cc1CN1CCOCC1 [Example 4, N-[4-(2,4-difluorophenoxy)-5-(6-methyl-7-oxo-6,7-dihydro-1H-pyrrolo[2,3-c]pyridin-4-yl)-2-(morpholin-4-ylmethyl)phenyl]ethanesulfonamide]",16.3 nM
5,"CCS(=O)(=O)Nc1cc(-c2cn(C)c(=O)c3[nH]ccc23)c(Oc2ccc(F)cc2F)cc1CN1CCN(C)CC1 [Example 5, N-{4-(2,4-difluorophenoxy)-5-(6-methyl-7-oxo-6,7-dihydro-1H-pyrrolo[2,3-c]pyridin-4-yl)-2-[(4-methylpiperazin-1-yl)methyl]phenyl}ethanesulfonamide]",40.1 nM
6,"CCS(=O)(=O)Nc1cc(-c2cn(C)c(=O)c3[nH]ccc23)c(Oc2ccc(F)cc2F)cc1CO [Example 6, N-[4-(2,4-difluorophenoxy)-2-(hydroxymethyl)-5-(6-methyl-7-oxo-6,7-dihydro-1H-pyrrolo[2,3-c]pyridin-4-yl)phenyl]ethanesulfonamide]",29.1 nM
7,"CCS(=O)(=O)Nc1cc(-c2cn(C)c(=O)c3[nH]ccc23)c(Oc2ccc(F)cc2F)cc1CNC1CCCC1 [Example 7, N-{2-[(cyclopentylamino)methyl]-4-(2,4-difluorophenoxy)-5-(6-methyl-7-oxo-6,7-dihydro-1H-pyrrolo[2,3-c]pyridin-4-yl)phenyl}ethanesulfonamide]",139 nM
8,"CCS(=O)(=O)Nc1cc(-c2cn(C)c(=O)c3[nH]ccc23)c(Oc2ccc(F)cc2F)cc1C(N)=O [Example 8, 5-(2,4-difluorophenoxy)-2-[(ethylsulfonyl)amino]-4-(6-methyl-7-oxo-6,7-dihydro-1H-pyrrolo[2,3-c]pyridin-4-yl)benzamide]",44.9 nM
9,"CCS(=O)(=O)Nc1cc(-c2cn(C)c(=O)c3[nH]ccc23)c(Oc2ccc(F)cc2F)cc1C(=O)NC1CCCC1 [Example 9, N-cyclopentyl-5-(2,4-difluorophenoxy)-2-[(ethylsulfonyl)amino]-4-(6-methyl-7-oxo-6,7-dihydro-1H-pyrrolo[2,3-c]pyridin-4-yl)benzamide]",65.3 nM
10,"CCS(=O)(=O)Nc1cc(-c2cn(C)c(=O)c3[nH]ccc23)c(Oc2ccc(F)cc2F)cc1C(=O)N(C)C [Example 10, 5-(2,4-difluorophenoxy)-2-[(ethylsulfonyl)amino]-N,N-dimethyl-4-(6-methyl-7-oxo-6,7-dihydro-1H-pyrrolo[2,3-c]pyridin-4-yl)benzamide]",98.2 nM
11,"CCS(=O)(=O)Nc1cc(-c2cn(C)c(=O)c3[nH]ccc23)c(Oc2ccc(F)cc2F)cc1C(=O)O [Example 11, 5-(2,4-difluorophenoxy)-2-[(ethylsulfonyl)amino]-4-(6-methyl-7-oxo-6,7-dihydro-1H-pyrrolo[2,3-c]pyridin-4-yl)benzoic acid]",452 nM
